# Test results: ChEMBL document CHEMBL3792289, “Design, synthesis and biological evaluation of bisabolangelone oxime derivatives as potassium-competitive acid blockers (P-CABs)” (Bioorg Med Chem Lett, 2016)
# Test: Inhibition of pig gastric H+/K+-ATPase in stomach ion leaky membrane vesicle assessed as reduction in monophosphate production after 30 mins by microplate reader analysis in presence of valinomycin
# Type: cell membranes, Sus scrofa
Compound,pIC50,IC50 [µM]
CC(C)C/C=C1\O[C@H]2C[C@@H](C)C/C(=N\O)[C@H]2[C@@]1(C)O,5.54,–
CCOC(=O)CO/N=C1\C[C@H](C)C[C@@H]2O/C(=C\CC(C)C)[C@](C)(O)[C@H]12,6.07,–
CC(C)C/C=C1\O[C@H]2C[C@@H](C)C/C(=N\OCc3ccccc3)[C@H]2[C@@]1(C)O,6.25,–
C#CCO/N=C1\C[C@H](C)C[C@@H]2O/C(=C\CC(C)C)[C@](C)(O)[C@H]12,6.36,–
CC(C)C/C=C1\O[C@H]2C[C@@H](C)C/C(=N\OC(=O)Nc3ccccc3)[C@H]2[C@@]1(C)O,6,–
CCCCO/N=C1\C[C@H](C)C[C@@H]2O/C(=C\CC(C)C)[C@](C)(O)[C@H]12,5.94,–
CC(C)CCC1O[C@H]2C[C@@H](C)C/C(=N\O)[C@H]2[C@@]1(C)O (some centres undefined),5.3,–
Cc1nc(Nc2ccc(F)cc2)nc(N2CCc3ccccc3C2C)c1C (centres undefined) [REVAPRAZAN],–,0.95

# Test: Inhibition of gastric H+/K+-ATPase in Kunming mouse stomach parietal cells
# Type: tissue-based
row,Compound,IC50 [µM]
1,CC(C)C/C=C1\O[C@H]2C[C@@H](C)CC(=O)[C@H]2[C@@]1(C)O,23.2
